Results taken from patent US20250144067A1, “PERSONALIZED STARVATION THERAPY FOR CANCER” (Faeth Therapeutics, Inc., priority 2021, published 2025).
Counter-ions that a name gives are not always drawn. Peptide text beside a SMILES is read from it.

Experiments:
[1] = system: NCI-H292 lung cancer cells; assay: FDA drug screening, complete media vs cholesterol-free media without statin (TABLE 1); format: cell-based, human
[2] = system: NCI-H292 lung cancer cells; assay: FDA drug screening, complete media vs cholesterol-free media with simvastatin (TABLE 2); format: cell-based, human; conditions: for Cholesterol-free media + simvastatin (0.04 μM) / Complete Media: NCI-H292 cells
[3] = Complete minus Cholesterol-free, greater than 0 enhanced anti-cancer activity, about 0 neutral, below 0 antagonists
[4] = NCI-H292 cells in cholesterol-free media without statin
[5] = NCI-H292 cells in complete media
[6] = drug in cholesterol-free media with simvastatin 0.04 μM
[7] = complete media vs cholesterol-free media + simvastatin (0.04 μM), >0 enhanced anti-cancer activity, about 0 neutral, <0 antagonist
[8] = Complete minus Cholesterol-free, >0 enhanced anti-cancer activity, about 0 neutral, <0 antagonist
[9] = NCI-H292 cells, cholesterol-free media without statin
[10] = FDA library drug in cholesterol-free media with simvastatin 0.04 μM
[11] = FDA library drug in complete media
[12] = Complete minus Cholesterol-free, greater than 0 enhanced anti-cancer activity, about 0 neutral, below 0 antagonist
[13] = NCI-H292 cells, FDA drug library screen, cholesterol-free media without statin
[14] = NCI-H292 cells, FDA drug library screen, complete media
[15] = FDA drug library screen, cholesterol-free media with simvastatin 0.04 μM
[16] = FDA drug library screen, complete media
[17] = NCI-H292 cells, cholesterol-free media without statin, FDA drug library screen
[18] = NCI-H292 cells, complete media, FDA drug library screen
[19] = complete vs cholesterol-free media, >0 enhanced anti-cancer activity, about 0 neutral, <0 antagonist
[20] = cholesterol-free media with simvastatin 0.04 μM, cell growth value in FDA drug screen
[21] = complete media, cell growth value in FDA drug screen
[22] = complete media minus cholesterol-free media + simvastatin, >0 enhanced anti-cancer activity, about 0 neutral, <0 antagonist
[23] = complete media minus cholesterol-free media + simvastatin (0.04 μM), >0 enhanced anti-cancer activity, about 0 neutral, <0 antagonist
[24] = cholesterol-free media with simvastatin 0.04 μM, FDA drug library screen (TABLE 2)
[25] = complete media, FDA drug library screen (TABLE 2)
[26] = Complete minus Cholesterol-free, […]
[27] = complete media minus cholesterol-free media + simvastatin, […]

CC(=O)N[C@H]1[C@H]([C@H](O)[C@H](O)CO)OC(C(=O)O)=C[C@@H]1N=C(N)N [Zanamivir]
Difference [1, 3]: −0.85
Cholesterol-free [1, 4]: 1.947
Complete [1, 5]: 1.097
Cholesterol-free media + simvastatin (0.04 μM) [2, 6]: 1.295
Complete Media ([2]; drug in complete media): 1.107
Difference [2, 7]: −0.19

COc1ccccc1N1CCN(CCCNc2cc(=O)n(C)c(=O)n2C)CC1 [Urapidil (hydrochloride)]
Difference [1, 8]: −0.28
Cholesterol-free [1, 9]: 1.01
Complete ([1]; NCI-H292 cells, complete media): 0.7335
Cholesterol-free media + simvastatin (0.04 μM) [2, 10]: 1.22
Complete Media [2, 11]: 0.87
Difference [2, 7]: −0.35

CCCN(CCc1cccs1)[C@H]1CCc2c(O)cccc2C1 [Rotigotine (Hydrochloride)]
Difference [1, 12]: −0.08
Cholesterol-free [1, 13]: 0.8788
Complete [1, 14]: 0.7943
Cholesterol-free media + simvastatin (0.04 μM) [2, 15]: 0.8026
Complete Media [2, 16]: 0.6752
Difference [2, 7]: −0.13

O=C([O-])CCCc1ccccc1.[Na+] [Sodium 4-phenylbutyrate]
Cholesterol-free [1, 17]: 0.7629
Complete [1, 18]: 1.099
Difference [1, 19]: 0.34
Cholesterol-free media + simvastatin (0.04 μM) [2, 6]: 1.094
Complete Media ([2]; drug in complete media): 0.9051
Difference [2, 7]: −0.19

COC(=O)c1ccccc1O [Methyl Salicylate]
Difference [1, 8]: −0.24
Cholesterol-free [1, 9]: 0.9648
Complete ([1]; NCI-H292 cells, complete media): 0.722
Cholesterol-free media + simvastatin (0.04 μM) [2, 20]: 0.8236
Complete Media [2, 21]: 0.8959
Difference [2, 22]: 0.07

(+)-Catechin hydrate
Difference [1, 8]: 0.05
Difference [2, 23]: −0.05

CC(C)(Sc1cc(C(C)(C)C)c(O)c(C(C)(C)C)c1)Sc1cc(C(C)(C)C)c(O)c(C(C)(C)C)c1 [Probucol]
Difference [1, 3]: −0.87
Cholesterol-free [1, 4]: 1.75
Complete [1, 5]: 0.8825
Cholesterol-free media + simvastatin (0.04 μM) [2, 6]: 1.293
Complete Media ([2]; drug in complete media): 1.087
Difference [2, 7]: −0.21

CC(C)(O/N=C(\C(=O)N[C@@H]1C(=O)N2C(C(=O)[O-])=C(C[n+]3ccccc3)CS[C@H]12)c1csc(N)n1)C(=O)O [Ceftazidime]
Difference [1, 8]: −0.05
Cholesterol-free [1, 17]: 0.9478
Complete [1, 18]: 0.8943
Cholesterol-free media + simvastatin (0.04 μM) [2, 6]: 1.391
Difference [2, 7]: −0.24

NCC(CC(=O)O)c1ccc(Cl)cc1 (centres unmarked) [Baclofen]
Cholesterol-free [1, 17]: 0.5541
Complete [1, 18]: 1.886
Difference [1, 19]: 1.33
Cholesterol-free media + simvastatin (0.04 μM) [2, 20]: 0.9225
Complete Media [2, 21]: 1.02
Difference [2, 22]: 0.10

Cc1ccccc1N1CCN(CCc2nnc3n2CCCC3)CC1 [Dapiprazole (hydrochloride)]
Difference [1, 3]: −0.49
Cholesterol-free [1, 4]: 1.532
Complete [1, 5]: 1.043
Cholesterol-free media + simvastatin (0.04 μM) [2, 10]: 1.337
Complete Media [2, 11]: 1.063
Difference [2, 7]: −0.27

CCN1CCN(C(=O)N[C@@H](C(=O)N[C@@H]2C(=O)N3[C@@H]2SC(C)(C)[C@@H]3C(=O)[O-])c2ccccc2)C(=O)C1=O.[Na+] [Piperacillin (sodium)]
Difference [1, 12]: −0.14
Cholesterol-free [1, 13]: 1.282
Complete [1, 14]: 1.138
Cholesterol-free media + simvastatin (0.04 μM) [2, 15]: 2.325
Difference [2, 23]: −1.15

CC(O)Cn1cnc2c1c(=O)n(C)c(=O)n2C (centres unmarked) [Proxyphylline]
Cholesterol-free [1, 17]: 0.7713
Complete [1, 18]: 1.327
Difference [1, 19]: 0.56
Cholesterol-free media + simvastatin (0.04 μM) [2, 10]: 1.208
Complete Media [2, 11]: 0.9431
Difference [2, 7]: −0.26

NC(=O)C(c1ccccc1)(c1ccccc1)[C@@H]1CCN(CCc2ccc3c(c2)CCO3)C1 [Darifenacin (hydrobromide)]
Difference [1, 12]: −0.11
Cholesterol-free [1, 13]: 1.186
Complete [1, 14]: 1.075
Cholesterol-free media + simvastatin (0.04 μM) [2, 15]: 1.197
Complete Media [2, 16]: 1.073
Difference [2, 7]: −0.12

O=C1c2c(O)ccc(O)c2C(=O)c2c(NCCNCCO)ccc(NCCNCCO)c21 [Mitoxantrone (dihydrochloride)]
Difference [1, 8]: 0.00
Cholesterol-free [1, 17]: −0.002893
Complete [1, 18]: −0.002012
Cholesterol-free media + simvastatin (0.04 μM) [2, 20]: 0.006643
Complete Media [2, 21]: 0.04976
Difference [2, 22]: 0.04

CCN(C(=O)c1c(O)c2c(Cl)cccc2n(C)c1=O)c1ccccc1 [Laquinimod]
Difference [1, 12]: −0.15
Cholesterol-free [1, 13]: 1.127
Complete [1, 14]: 0.9797
Cholesterol-free media + simvastatin (0.04 μM) [2, 24]: 1.3
Complete Media [2, 25]: 1.306
Difference [2, 23]: 0.01

C[C@]12CC[C@H](O)CC1=CC[C@@H]1[C@@H]2CC[C@]2(C)C(c3cccnc3)=CC[C@@H]12 [Abiraterone]
Cholesterol-free [1, 17]: 1.119
Complete [1, 18]: 1.371
Difference [1, 19]: 0.25
Cholesterol-free media + simvastatin (0.04 μM) [2, 10]: 1.907
Complete Media [2, 11]: 1.473
Difference [2, 7]: −0.43

Nc1nc(=O)c2c([nH]1)NC[C@H](CNc1ccc(C(=O)N[C@@H](CCC(=O)[O-])C(=O)[O-])cc1)N2C=O.[Ca+2] [Levoleucovorin (Calcium)]
Difference [1, 26]: −0.05
Cholesterol-free [1, 17]: 1.535
Complete [1, 18]: 1.487
Cholesterol-free media + simvastatin (0.04 μM) [2, 15]: 1.534
Complete Media [2, 16]: 1.758
Difference [2, 27]: 0.22

NC(=O)[C@@H]1CC[C@@H]2CN1C(=O)N2OS(=O)(=O)O [Avibactam (sodium hydrate)]
Cholesterol-free [1, 17]: 0.6447
Complete [1, 18]: 0.883
Difference [1, 19]: 0.24
Cholesterol-free media + simvastatin (0.04 μM) [2, 15]: 1.124
Complete Media [2, 16]: 1.029
Difference [2, 7]: −0.09

C[C@@H]1CCN(C(=O)CC#N)C[C@@H]1N(C)c1ncnc2[nH]ccc12 [Tofacitinib]
Difference [1, 8]: −0.07
Cholesterol-free [1, 17]: 1.303
Complete [1, 18]: 1.238
Cholesterol-free media + simvastatin (0.04 μM) [2, 20]: 1.188
Complete Media [2, 21]: 1.224
Difference [2, 22]: 0.04

CNC[C@H](O)[C@@H](O)[C@H](O)[C@H](O)CO [Meglumine]
Difference [1, 8]: −0.26
Cholesterol-free [1, 9]: 1.228
Complete ([1]; NCI-H292 cells, complete media): 0.9693
Cholesterol-free media + simvastatin (0.04 μM) [2, 24]: 1.358
Complete Media [2, 25]: 1.305
Difference [2, 23]: −0.05

CC(C)NCC(O)COc1ccc(CC(N)=O)cc1 (centres unmarked) [Atenolol]
Difference [1, 8]: −0.26
Cholesterol-free [1, 9]: 1.429
Cholesterol-free media + simvastatin (0.04 μM) [2, 20]: 0.9412
Complete Media [2, 21]: 1.006
Difference [2, 22]: 0.06

O=C(O)c1ccc2nc(-c3cc(Cl)cc(Cl)c3)oc2c1 [Tafamidis]
Cholesterol-free [1, 17]: 0.399
Complete [1, 18]: 0.8565
Difference [1, 19]: 0.46
Cholesterol-free media + simvastatin (0.04 μM) [2, 10]: 1.307
Complete Media [2, 11]: 0.9388
Difference [2, 7]: −0.37

COc1ccnc(C[S+]([O-])c2nc3ccc(OC(F)F)cc3[nH]2)c1OC (centres unmarked) [Pantoprazole (sodium hydrate)]
Cholesterol-free [1, 9]: 1.314
Complete ([1]; NCI-H292 cells, complete media): 0.9437
Difference ([1]; complete vs cholesterol-free media, greater than 0 enhanced anti-cancer activity, about 0 neutral, below 0 antagonists): −0.37
Cholesterol-free media + simvastatin (0.04 μM) [2, 15]: 1.494
Complete Media [2, 16]: 1.718
Difference [2, 22]: 0.22

Oc1cc(O)c(Cl)cn1 [Gimeracil]
Difference [1, 8]: 0.07
Cholesterol-free [1, 17]: 0.8525
Complete [1, 18]: 0.9232
Cholesterol-free media + simvastatin (0.04 μM) [2, 10]: 2.327
Complete Media [2, 11]: 1.491
Difference [2, 7]: −0.84

CO/N=C(\C(=O)N[C@@H]1C(=O)N2C(C(=O)O)=C(COC(C)=O)CS[C@H]12)c1csc(N)n1 [Cefotaxime]
Difference [1, 3]: −0.57
Cholesterol-free [1, 4]: 1.225
Complete [1, 5]: 0.66
Cholesterol-free media + simvastatin (0.04 μM) [2, 15]: 0.9945
Complete Media [2, 16]: 0.8998
Difference [2, 7]: −0.09

Nc1nc(N)c2nc(-c3ccccc3)c(N)nc2n1 [Triamterene]
Cholesterol-free [1, 17]: 0.6087
Complete [1, 18]: 1.304
Difference [1, 19]: 0.69
Cholesterol-free media + simvastatin (0.04 μM) [2, 10]: 1.582
Complete Media [2, 11]: 1.301
Difference [2, 7]: −0.28

CN1C(C(=O)Nc2ccccn2)=C(O)c2ccccc2S1(=O)=O [Piroxicam]
Difference [1, 3]: −0.71
Cholesterol-free [1, 4]: 1.552
Complete [1, 5]: 0.8427
Cholesterol-free media + simvastatin (0.04 μM) [2, 10]: 1.433
Complete Media [2, 11]: 1.008
Difference [2, 7]: −0.42

N=C(N)NCCCC[C@@H]1NC(=O)CCSSC[C@@H](C(N)=O)NC(=O)[C@@H]2CCCN2C(=O)[C@H](Cc2c[nH]c3ccccc23)NC(=O)[C@H](CC(=O)O)NC(=O)CNC1=O [Eptifibatide] (HELM PEPTIDE1{[O=C(CCS[*:3])[*:2]].[N=C(N)NCCCC[C@H](N[*:1])C(=O)[*:2]].G.D.W.P.C.[am]}$PEPTIDE1,PEPTIDE1,1:R3-7:R3$$$V2.0)
Difference [1, 26]: −1.01
Cholesterol-free [1, 4]: 1.974
Complete [1, 5]: 0.9607
Cholesterol-free media + simvastatin (0.04 μM) [2, 15]: 0.8438
Complete Media [2, 16]: 0.9929
Difference [2, 27]: 0.15
